Laboratory results: patent US20260285850A1, “SUBSTITUTED OXAZOLIDINONES AND IMIDAZOLINONES AS HERBICIDES” (FMC CORPORATION, priority 2023, published 2026)

Assays:
Format in all cases: in vivo
[1] = system: barnyardgrass (Echinochloa crus-galli); assay: Test A preemergence soil spray, visual injury rating 0-100; conditions: 10 days, 0 = no effect, 100 = complete control
In short: (§1)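 Loam-sand pots got test material in surfactant-containing solvent, either as a directed soil spray before emergence or on plants at the one- to two-leaf stage. Visual injury (0-100) was read after ten greenhouse days.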

[2] = system: blackgrass (Alopecurus myosuroides); assay: as above; conditions: 10 days, 0 = no effect, 100 = complete control
In short: as §1

corn (Zea mays) [3] = assay: as above; conditions: 10 days, 0 = no effect, 100 = complete control
In short: as §1

[4] = system: green foxtail (Setaria viridis); assay: as above; conditions: 10 days, 0 = no effect, 100 = complete control
In short: as §1

kochia (Bassia scoparia) [5] = assay: as above; conditions: 10 days, 0 = no effect, 100 = complete control
In short: as §1

[6] = system: oat, wild (wild oat, Avena fatua); assay: as above; conditions: 10 days, 0 = no effect, 100 = complete control
In short: as §1

[7] = system: palmer (palmer amaranth, palmer pigweed, Amaranthus palmeri); assay: as above; conditions: 10 days, 0 = no effect, 100 = complete control
In short: as §1

[8] = system: ragweed (common ragweed, Ambrosia artemisiifolia); assay: as above; conditions: 10 days, 0 = no effect, 100 = complete control
In short: as §1

[9] = system: ryegrass, Italian (italian ryegrass, Lolium multiflorum); assay: as above; conditions: 10 days, 0 = no effect, 100 = complete control
In short: as §1

soybean (Glycine max) [10] = assay: as above; conditions: 10 days, 0 = no effect, 100 = complete control
In short: as §1

[11] = system: wheat (Triticum aestivum); assay: as above; conditions: 10 days, 0 = no effect, 100 = complete control
In short: as §1

[12] = system: barnyardgrass (Echinochloa crus-galli); assay: Test A postemergence application, visual injury rating 0-100; conditions: 10 days
In short: as §1

[13] = system: blackgrass (Alopecurus myosuroides); assay: as above; conditions: 10 days
In short: as §1

corn (Zea mays) [14] = assay: as above; conditions: 10 days
In short: as §1

[15] = system: galium (catchweed bedstraw, Galium aparine); assay: as above; conditions: 10 days
In short: as §1

[16] = system: green foxtail (Setaria viridis); assay: as above; conditions: 10 days
In short: as §1

[17] = system: horseweed (Erigeron canadensis); assay: as above; conditions: 10 days
In short: as §1

kochia (Bassia scoparia) [18] = assay: as above; conditions: 10 days
In short: as §1

[19] = system: oat, wild (wild oat, Avena fatua); assay: as above; conditions: 10 days
In short: as §1

[20] = system: palmer (palmer amaranth, palmer pigweed, Amaranthus palmeri); assay: as above; conditions: 10 days
In short: as §1

[21] = system: ragweed (common ragweed, Ambrosia artemisiifolia); assay: as above; conditions: 10 days
In short: as §1

[22] = system: ryegrass, Italian (italian ryegrass, Lolium multiflorum); assay: as above; conditions: 10 days
In short: as §1

soybean (Glycine max) [23] = assay: as above; conditions: 10 days
In short: as §1

[24] = system: wheat (Triticum aestivum); assay: as above; conditions: 10 days
In short: as §1

[25] = system: barnyardgrass (Echinochloa crusgalli); assay: Test B flooded paddy test, visual plant response rating 0-100; conditions: 250 g ai/ha, Flood, applied to paddy water, evaluated after 13 days
In short: (§2)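 Compounds applied to standing paddy water (3 cm above soil, maintained for the test duration) on 2-leaf-stage plants; visual rating vs controls at 13 days, greenhouse.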

[26] = system: ducksalad (Heteranthera limosa); assay: as above; conditions: 250 g ai/ha, Flood, applied to paddy water, evaluated after 13 days
In short: as §2

rice (Oryza sativa) = assay: as above; conditions: 250 g ai/ha, Flood, applied to paddy water, evaluated after 13 days
In short: as §2

[27] = system: sedge, umbrella (small-flower umbrella sedge, Cyperus difformis); assay: as above; conditions: 250 g ai/ha, Flood, applied to paddy water, evaluated after 13 days
In short: as §2

[28] = 31 g ai/ha, postemergence, 0 = no effect, 100 = complete control
[29] = Postemergence, 125 g ai/ha, 0 is no effect, 100 is complete control

Q: Which results are given for `CC(C)COC(=O)C1=CCC(NC(=O)C2(C)CN(c3cc(F)cc(F)c3)C(=O)O2)C1` (stereo not shown) [Compound 16]?
A: Barnyardgrass plant response rating (0-100) ([1]; 31 g ai/ha): 0; Barnyardgrass plant response rating (0 to 100 scale) ([1]; 125 g ai/ha): 90; Blackgrass plant response rating (0-100) ([2]; 31 g ai/ha): 0; Blackgrass plant response rating (0 to 100 scale) ([2]; 125 g ai/ha): 40; Corn plant response rating (0-100) (corn (Zea mays) [3]; 31 g ai/ha): 20; Corn plant response rating (0 to 100 scale) (corn (Zea mays) [3]; 125 g ai/ha): 70; Foxtail, Green plant response rating (0-100) ([4]; 31 g ai/ha): 0; Foxtail, Green plant response rating (0 to 100 scale) ([4]; 125 g ai/ha): 100; Kochia plant response rating (0-100) (kochia (Bassia scoparia) [5]; 31 g ai/ha): 0; Kochia plant response rating (0 to 100 scale) (kochia (Bassia scoparia) [5]; 125 g ai/ha): 40; Oat, Wild plant response rating (0-100) ([6]; 31 g ai/ha): 0; Oat, Wild plant response rating (0 to 100 scale) ([6]; 125 g ai/ha): 50; Amaranth, Palmer plant response rating (0-100) ([7]; 31 g ai/ha): 0; Amaranth, Palmer plant response rating (0 to 100 scale) ([7]; 125 g ai/ha): 80; Ragweed plant response rating (0-100) ([8]; 31 g ai/ha): 0; Ragweed plant response rating (0 to 100 scale) ([8]; 125 g ai/ha): 20; Ryegrass, Italian plant response rating (0-100) ([9]; 31 g ai/ha): 40; Ryegrass, Italian plant response rating (0 to 100 scale) ([9]; 125 g ai/ha): 90; Soybean plant response rating (0-100) (soybean (Glycine max) [10]; 31 g ai/ha): 0; Soybean plant response rating (0 to 100 scale) (soybean (Glycine max) [10]; 125 g ai/ha): 0; Wheat plant response rating (0-100) ([11]; 31 g ai/ha): 50; Wheat plant response rating (0 to 100 scale) ([11]; 125 g ai/ha): 80; Barnyardgrass plant response rating (0-100) [12, 28]: 100; Barnyardgrass plant response rating (0 to 100 scale) [12, 29]: 100; Blackgrass plant response rating (0-100) [13, 28]: 90; Blackgrass plant response rating (0 to 100 scale) [13, 29]: 100; Corn plant response rating (0-100) (corn (Zea mays) [14]; [28]): 90; Corn plant response rating (0 to 100 scale) (corn (Zea mays) [14]; [29]): 100; Galium plant response rating (0-100) [15, 28]: 90; Galium plant response rating (0 to 100 scale) [15, 29]: 90; Foxtail, Green plant response rating (0-100) [16, 28]: 90; Foxtail, Green plant response rating (0 to 100 scale) [16, 29]: 90; Horseweed plant response rating (0-100) [17, 28]: 0; Horseweed plant response rating (0 to 100 scale) [17, 29]: 20; Kochia plant response rating (0-100) (kochia (Bassia scoparia) [18]; [28]): 70; Kochia plant response rating (0 to 100 scale) (kochia (Bassia scoparia) [18]; [29]): 70; Oat, Wild plant response rating (0-100) [19, 28]: 60; Oat, Wild plant response rating (0 to 100 scale) [19, 29]: 90; Amaranth, Palmer plant response rating (0-100) [20, 28]: 20; Amaranth, Palmer / Pigweed, Palmer plant response rating (0 to 100 scale) [20, 29]: 70; Ragweed plant response rating (0-100) [21, 28]: 40; Ragweed plant response rating (0 to 100 scale) [21, 29]: 50; Ryegrass, Italian plant response rating (0-100) [22, 28]: 70; Ryegrass, Italian plant response rating (0 to 100 scale) [22, 29]: 90; Soybean plant response rating (0-100) (soybean (Glycine max) [23]; [28]): 60; Soybean plant response rating (0 to 100 scale) (soybean (Glycine max) [23]; [29]): 60; Wheat plant response rating (0-100) [24, 28]: 80; Wheat plant response rating (0 to 100 scale) [24, 29]: 90; Plant response rating, Barnyardgrass (0 to 100 scale, 0 is no effect and 100 is complete control) [25]: 65; Plant response rating, Ducksalad (0 to 100 scale, 0 is no effect and 100 is complete control) [26]: 70; Plant response rating, Rice (0 to 100 scale, 0 is no effect and 100 is complete control) (rice (Oryza sativa)): 65; Plant response rating, Sedge, Umbrella (0 to 100 scale, 0 is no effect and 100 is complete control) [27]: 65
